# Measurements reported in patent US20190216761A1, “COMPOSITIONS COMPRISING 15-HEPE AND METHODS OF USING THE SAME” (Afimmune Limited, priority 2015, published 2019).
# Where a chain is given by its changes, count along the chain named. Marks after values point to notes of the source that are not given here.
# Tests used:
# rPPARδ [1] = experiment: PPAR agonist reporter assay (Gal4 hybrid receptor, luciferase); assay type: cell-based, rat
# Procedure: (§1) This study utilized proprietary reporter cells expressing a hybrid receptor comprising the N-terminal Gal4 DNA binding domain fused to the ligand binding domain of the specific human nuclear receptor (hPPARα, hPPARδ, and hPPARγ) and rat nuclear receptor (rPPARα, rPPARδ, and rPPARγ). The reporter vectors used in this Example comprise the firefly luciferase gene functionally linked to the Gal4 upstream activation sequence.
# (§2) Nuclear Receptor assay was performed by dispensing 100 μL of a suspension of Reporter Cells in Cell Recovery Medium (CRM) containing 10% charcoal stripped FBS into each well of a white 96-well plate. Test compounds were diluted using compound screening medium (CSM) containing 10% charcoal stripped FBS to generate “2×-concentration” treatment media. Immediately after this dilution step, 100 μL of each diluted 2×-concentration treatment medium was dispensed (in triplicate) into the Reporter Cell-containing assay wells.
# (§3) After incubation at 37° C. for 24 hours, the treatment media was discarded. 100 μL of Luciferase Detection Reagent substrate was added to each well and RLUs were quantified from each well to determine nuclear receptor activities.
# hPPARδ = biological target: T1, hPPARδ (Homo sapiens, UniProt Q03181); experiment: as above; assay type: cell-based
# T1 construct: expressed in transfected cells
# T1 sequence (Q03181 211-439 limits assumed): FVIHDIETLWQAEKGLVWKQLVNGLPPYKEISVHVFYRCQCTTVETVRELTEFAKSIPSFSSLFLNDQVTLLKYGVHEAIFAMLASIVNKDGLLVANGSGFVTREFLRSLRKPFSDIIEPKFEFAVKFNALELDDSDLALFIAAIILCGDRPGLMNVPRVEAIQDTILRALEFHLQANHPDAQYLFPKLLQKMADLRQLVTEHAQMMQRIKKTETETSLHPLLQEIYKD
# Procedure: as §1, §2, §3
# hPPARγ = biological target: T2, hPPARγ (Homo sapiens, UniProt P37231); experiment: as above; assay type: cell-based
# T2 construct: expressed in transfected cells
# T2 sequence (P37231 238-503 limits assumed): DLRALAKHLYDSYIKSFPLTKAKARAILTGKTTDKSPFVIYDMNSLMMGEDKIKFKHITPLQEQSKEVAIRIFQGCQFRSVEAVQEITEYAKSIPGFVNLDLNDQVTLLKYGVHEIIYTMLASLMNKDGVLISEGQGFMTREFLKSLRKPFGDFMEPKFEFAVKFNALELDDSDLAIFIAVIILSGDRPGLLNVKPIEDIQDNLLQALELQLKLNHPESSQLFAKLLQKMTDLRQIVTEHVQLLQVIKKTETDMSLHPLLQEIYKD
# Procedure: as §1, §2, §3
# rPPARα = biological target: T3, rPPARα (Rattus norvegicus, UniProt P37230); experiment: as above; assay type: cell-based
# T3 construct: expressed in transfected cells
# T3 sequence (P37230 239-466 limits assumed): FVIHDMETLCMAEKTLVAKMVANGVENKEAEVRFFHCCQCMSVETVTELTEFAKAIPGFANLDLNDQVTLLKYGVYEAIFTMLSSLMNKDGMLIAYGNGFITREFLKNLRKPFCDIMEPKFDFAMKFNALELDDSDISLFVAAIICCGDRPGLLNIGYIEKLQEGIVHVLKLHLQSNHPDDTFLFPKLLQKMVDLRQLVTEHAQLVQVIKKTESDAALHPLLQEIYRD
# Procedure: as §1, §2, §3
# rPPARγ = biological target: T4, rPPARγ (Rattus norvegicus, UniProt O88275); experiment: as above; assay type: cell-based
# T4 construct: expressed in transfected cells
# T4 sequence (O88275 238-503 limits assumed): T2 sequence (P37231 238-503 limits assumed) with S93N, V98I, L226V, Q245H
# Procedure: as §1, §2, §3
# rPPARδ [2] = experiment: PPAR antagonist reporter assay (reference agonist at EC80); assay type: cell-based, rat
# Procedure: as §1
# Nuclear Receptor assay was performed by suspending Reporter Cells in CRM containing 10% charcoal stripped FBS. 2×-EC80 concentrations of the appropriate reference agonist were then added to the Reporter Cell suspension, and 100 μL of the mixture dispensed into wells of a white 96-well plate. Test compounds were diluted using compound screening medium (CSM) containing 10% charcoal stripped FBS to generate “2×-concentration” treatment media. Immediately after this dilution step, 100 μL of each diluted 2×-concentration treatment medium was dispensed (in triplicate) into the Reporter Cell-containing assay wells.
# After incubation at 37° C. for 24 hours, the treatment media was discarded. Each well was rinsed once with LCM Buffer; LCM substrate was then added. After incubation for 30 minutes at 37° C., fluorescence was measured to determine the relative number of live cells per assay well. LCM substrate was then discarded and 100 μL of Luciferase Detection Reagent substrate was added to each well. RLUs were quantified from each well to determine nuclear receptor activities.
# [3] = at medium to higher doses in the dose response curve
# [4] = at low to higher doses in the dose response curve
smiles,measurement,setting,value
"CC/C=C\C[C@H](O)/C=C/C=C\C/C=C\C/C=C\CCCC(=O)OCC [15-HEPE-EE, 15-HEPE ethyl ester]",Fold-Activation (vs. 0.10% DMSO) rPPAR-δ,rPPARδ [1]; 137 nM,1.3 fold
same,Fold-Activation (vs. 0.10% DMSO) rPPAR-δ,rPPARδ [1]; 412 nM,1.5 fold
same,Fold-Activation (vs. 0.10% DMSO) rPPAR-δ,"rPPARδ [1]; 1,235 nM",1.6 fold
same,Fold-Activation (vs. 0.10% DMSO) rPPAR-δ,"rPPARδ [1]; 3,704 nM",1.8 fold
same,Fold-Activation (vs. 0.10% DMSO) rPPAR-δ,"rPPARδ [1]; 11,111 nM",2.4* fold
same,Fold-Activation (vs. 0.10% DMSO) rPPAR-δ,"rPPARδ [1]; 33,333 nM",2.7* fold
same,Fold-Activation (vs. 0.10% DMSO) rPPAR-δ,"rPPARδ [1]; 100,000 nM",7.2* fold
same,Fold-Activation (vs. 0.10% DMSO) rPPAR-δ,"rPPARδ [1]; 300,000 nM",1.9 fold
same,agonism activity against rat PPARδ (in words),rPPARδ [1]; [3],mild to moderate agonism activity
same,Fold-Activation (vs. 0.10% DMSO) hPPAR-δ,hPPARδ; 137 nM,1.4 fold
same,Fold-Activation (vs. 0.10% DMSO) hPPAR-δ,hPPARδ; 412 nM,2.1* fold
same,Fold-Activation (vs. 0.10% DMSO) hPPAR-δ,"hPPARδ; 1,235 nM",2.1* fold
same,Fold-Activation (vs. 0.10% DMSO) hPPAR-δ,"hPPARδ; 3,704 nM",2.4* fold
same,Fold-Activation (vs. 0.10% DMSO) hPPAR-δ,"hPPARδ; 11,111 nM",5.6* fold
same,Fold-Activation (vs. 0.10% DMSO) hPPAR-δ,"hPPARδ; 33,333 nM",4.1* fold
same,Fold-Activation (vs. 0.10% DMSO) hPPAR-δ,"hPPARδ; 100,000 nM",8.0* fold
same,Fold-Activation (vs. 0.10% DMSO) hPPAR-δ,"hPPARδ; 300,000 nM",0.073 fold
same,agonism activity against human PPARδ (in words),hPPARδ; [4],moderate agonism activity
same,Fold-Activation (vs. 0.10% DMSO) hPPAR-γ,hPPARγ; 137 nM,1.0 fold
same,Fold-Activation (vs. 0.10% DMSO) hPPAR-γ,hPPARγ; 412 nM,1.1 fold
same,Fold-Activation (vs. 0.10% DMSO) hPPAR-γ,"hPPARγ; 1,235 nM",1.3 fold
same,Fold-Activation (vs. 0.10% DMSO) hPPAR-γ,"hPPARγ; 3,704 nM",1.5 fold
same,Fold-Activation (vs. 0.10% DMSO) hPPAR-γ,"hPPARγ; 11,111 nM",2.1* fold
same,Fold-Activation (vs. 0.10% DMSO) hPPAR-γ,"hPPARγ; 33,333 nM",3.6* fold
same,Fold-Activation (vs. 0.10% DMSO) hPPAR-γ,"hPPARγ; 100,000 nM",6.1* fold
same,Fold-Activation (vs. 0.10% DMSO) hPPAR-γ,"hPPARγ; 300,000 nM",0.027 fold
same,agonism activity against human PPARγ (in words),hPPARγ; [4],moderate agonism activity
same,Fold-Activation (vs. 0.10% DMSO) rPPAR-α,rPPARα; 137 nM,1.1 fold
same,Fold-Activation (vs. 0.10% DMSO) rPPAR-α,rPPARα; 412 nM,1.2 fold
same,Fold-Activation (vs. 0.10% DMSO) rPPAR-α,"rPPARα; 1,235 nM",1.2 fold
same,Fold-Activation (vs. 0.10% DMSO) rPPAR-α,"rPPARα; 3,704 nM",1.4 fold
same,Fold-Activation (vs. 0.10% DMSO) rPPAR-α,"rPPARα; 11,111 nM",1.7 fold
same,Fold-Activation (vs. 0.10% DMSO) rPPAR-α,"rPPARα; 33,333 nM",2.6* fold
same,Fold-Activation (vs. 0.10% DMSO) rPPAR-α,"rPPARα; 100,000 nM",1.4 fold
same,Fold-Activation (vs. 0.10% DMSO) rPPAR-α,"rPPARα; 300,000 nM",0.068 fold
same,agonism activity against rat PPARα (in words),rPPARα; [3],mild to moderate agonism activity
same,Fold-Activation (vs. 0.10% DMSO) rPPAR-γ,rPPARγ; 137 nM,1.2 fold
same,Fold-Activation (vs. 0.10% DMSO) rPPAR-γ,rPPARγ; 412 nM,1.2 fold
same,Fold-Activation (vs. 0.10% DMSO) rPPAR-γ,"rPPARγ; 1,235 nM",1.4 fold
same,Fold-Activation (vs. 0.10% DMSO) rPPAR-γ,"rPPARγ; 3,704 nM",1.4 fold
same,Fold-Activation (vs. 0.10% DMSO) rPPAR-γ,"rPPARγ; 11,111 nM",1.8 fold
same,Fold-Activation (vs. 0.10% DMSO) rPPAR-γ,"rPPARγ; 33,333 nM",3.5* fold
same,Fold-Activation (vs. 0.10% DMSO) rPPAR-γ,"rPPARγ; 100,000 nM",10* fold
same,Fold-Activation (vs. 0.10% DMSO) rPPAR-γ,"rPPARγ; 300,000 nM",14* fold
same,agonism activity against rat PPARγ (in words),rPPARγ; [3],mild to moderate agonism activity
same,"% Inhibition of agonist-stimulated receptor activity vs. 0.10% DMSO, rPPAR-δ",rPPARδ [2]; 137 nM,25%
same,"% Inhibition of agonist-stimulated receptor activity vs. 0.10% DMSO, rPPAR-δ",rPPARδ [2]; 412 nM,1.5%
same,"% Inhibition of agonist-stimulated receptor activity vs. 0.10% DMSO, rPPAR-δ","rPPARδ [2]; 1,235 nM",−1.8%
same,"% Inhibition of agonist-stimulated receptor activity vs. 0.10% DMSO, rPPAR-δ","rPPARδ [2]; 3,704 nM",6.8%
same,"% Inhibition of agonist-stimulated receptor activity vs. 0.10% DMSO, rPPAR-δ","rPPARδ [2]; 11,111 nM",1.2%
same,"% Inhibition of agonist-stimulated receptor activity vs. 0.10% DMSO, rPPAR-δ","rPPARδ [2]; 33,333 nM",26%
same,"% Inhibition of agonist-stimulated receptor activity vs. 0.10% DMSO, rPPAR-δ","rPPARδ [2]; 100,000 nM",58%
same,"% Inhibition of agonist-stimulated receptor activity vs. 0.10% DMSO, rPPAR-δ","rPPARδ [2]; 300,000 nM",100%
same,"inhibition of rat PPARs (in words), rPPARδ",rPPARδ [2]; at higher test concentrations,apparent inhibition
